Assay results published in ChEMBL document CHEMBL1201861, “Genomics of Drug Sensitity in Cancer screening data, Wellcome Trust Sanger Institute”.

Key:
Assay in all cases: cells
Details in all cases: Homo sapiens
[1] = tested on: NEC8; type: functional, cell-based;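 further: growth inhibition of human NEC8 cells, read out by a cell viability assay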
Description: SANGER: Inhibition of human NEC8 cell growth in a cell viability assay.

[2] = tested on: HCC2218; type: functional, cell-based;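 further: cell viability assay read-out, with IC50 given as the concentration that inhibits growth of the cell line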
Description: SANGER: Inhibition of human HCC2218 cell growth in a cell viability assay.

[3] = tested on: SH-4; type: functional, cell-based;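 further: growth inhibition of SH-4 cells, read out with a cell viability assay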
Description: SANGER: Inhibition of human SH-4 cell growth in a cell viability assay.

[4] = tested on: NOS-1; type: functional, cell-based;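 further: growth inhibition of the human NOS-1 cell line, read out with a cell viability assay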
Description: SANGER: Inhibition of human NOS-1 cell growth in a cell viability assay.

[5] = tested on: EW-16; type: functional, cell-based;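 further: growth inhibition of human EW-16 cells, read out as cell viability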
Description: SANGER: Inhibition of human EW-16 cell growth in a cell viability assay.

[6] = tested on: NCI-H1770; type: functional, cell-based;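 further: growth inhibition of NCI-H1770 cells determined with a viability readout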
Description: SANGER: Inhibition of human NCI-H1770 cell growth in a cell viability assay.

[7] = tested on: EW-11; type: functional, cell-based;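 further: growth inhibition of human EW-11 cells, measured with a cell viability assay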
Description: SANGER: Inhibition of human EW-11 cell growth in a cell viability assay.

[8] = tested on: C2BBe1; type: functional, cell-based;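 further: growth inhibition of C2BBe1 cells, read out through a viability assay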
Description: SANGER: Inhibition of human C2BBe1 cell growth in a cell viability assay.

[9] = tested on: J-RT3-T3-5; type: functional, cell-based;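 further: cell viability assay measuring growth inhibition of human J-RT3-T3-5 cells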
Description: SANGER: Inhibition of human J-RT3-T3-5 cell growth in a cell viability assay.

[10] = tested on: HAL-01; type: functional, cell-based;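 further: growth inhibition of human HAL-01 cells, read out with a cell viability assay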
Description: SANGER: Inhibition of human HAL-01 cell growth in a cell viability assay.

[11] = tested on: HDLM-2; type: functional, cell-based;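 further: cell viability assay measuring suppression of HDLM-2 proliferation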
Description: SANGER: Inhibition of human HDLM-2 cell growth in a cell viability assay.

[12] = tested on: TE-1; type: functional, cell-based;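 further: growth inhibition of the human TE-1 cell line, read out with a cell viability assay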
Description: SANGER: Inhibition of human TE-1 cell growth in a cell viability assay.

[13] = tested on: KE-37; type: functional, cell-based;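 further: growth inhibition of KE-37 cells, read out with a cell viability assay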
Description: SANGER: Inhibition of human KE-37 cell growth in a cell viability assay.

[14] = tested on: COLO-684; type: functional, cell-based
Description: SANGER: Inhibition of human COLO-684 cell growth in a cell viability assay.

[15] = tested on: no-11; type: functional, cell-based;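 further: growth inhibition of human NO-11 cells, read out with a cell viability assay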
Description: SANGER: Inhibition of human no-11 cell growth in a cell viability assay.

[16] = tested on: KM-H2; type: functional, cell-based;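 further: growth inhibition of KM-H2 cells, read out by a cell viability assay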
Description: SANGER: Inhibition of human KM-H2 cell growth in a cell viability assay.

[17] = tested on: COLO-824; type: functional, cell-based
Description: SANGER: Inhibition of human COLO-824 cell growth in a cell viability assay.

[18] = tested on: ATN-1; type: functional, cell-based;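 further: growth inhibition of human ATN-1 cells, read out with a cell viability assay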
Description: SANGER: Inhibition of human ATN-1 cell growth in a cell viability assay.

[19] = tested on: SHP77; type: functional, cell-based, SHP-77;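 further: growth inhibition of human SHP-77 cells measured by a cell viability assay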
Description: SANGER: Inhibition of human SHP-77 cell growth in a cell viability assay.

[20] = tested on: NCI-H747; type: functional, cell-based;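 further: growth inhibition of human NCI-H747 cells, read out by a cell viability assay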
Description: SANGER: Inhibition of human NCI-H747 cell growth in a cell viability assay.

[21] = tested on: NB10; type: functional, cell-based;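 further: growth inhibition of NB10 cells, read out by a cell viability assay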
Description: SANGER: Inhibition of human NB10 cell growth in a cell viability assay.

[22] = tested on: EW-3; type: functional, cell-based;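 further: cell viability assay read-out, IC50 reflects inhibition of growth of the EW-3 cells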
Description: SANGER: Inhibition of human EW-3 cell growth in a cell viability assay.

[23] = tested on: HD-MY-Z; type: functional, cell-based;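 further: growth inhibition of HD-MY-Z cells, read out with a cell viability assay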
Description: SANGER: Inhibition of human HD-MY-Z cell growth in a cell viability assay.

[24] = tested on: GAK; type: functional, cell-based;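 further: cell growth inhibition read out by a cell viability assay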
Description: SANGER: Inhibition of human GAK cell growth in a cell viability assay.

[25] = tested on: MHH-NB-11; type: functional, cell-based;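 further: growth inhibition of human MHH-NB-11 cells, read out by a cell viability assay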
Description: SANGER: Inhibition of human MHH-NB-11 cell growth in a cell viability assay.

[26] = tested on: SW684; type: functional, cell-based;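 further: growth inhibition of human SW684 cells, measured by a cell viability assay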
Description: SANGER: Inhibition of human SW684 cell growth in a cell viability assay.

[27] = tested on: TGBC1TKB; type: functional, cell-based;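 further: growth inhibition of TGBC1TKB cells, read out by a cell viability assay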
Description: SANGER: Inhibition of human TGBC1TKB cell growth in a cell viability assay.

[28] = tested on: SW872; type: functional, cell-based;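 further: growth inhibition of SW872 cells, read out by a viability assay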
Description: SANGER: Inhibition of human SW872 cell growth in a cell viability assay.

[29] = tested on: ES8; type: functional, cell-based;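 further: growth inhibition of human ES8 cells, read out with a cell viability assay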
Description: SANGER: Inhibition of human ES8 cell growth in a cell viability assay.

[30] = tested on: KNS-81-FD; type: functional, cell-based;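 further: growth inhibition of KNS-81-FD cells, read out with a cell viability assay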
Description: SANGER: Inhibition of human KNS-81-FD cell growth in a cell viability assay.

[31] = tested on: K5; type: functional, cell-based
Description: SANGER: Inhibition of human K5 cell growth in a cell viability assay.

[32] = tested on: NCI-H69; type: functional, cell-based;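 further: growth inhibition of the cell line, read out with a cell viability assay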
Description: SANGER: Inhibition of human NCI-H69 cell growth in a cell viability assay.

[33] = tested on: A498; type: functional, cell-based;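 further: growth inhibition of human A498 cells, read out with a cell viability assay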
Description: SANGER: Inhibition of human A498 cell growth in a cell viability assay.

[34] = tested on: LAMA-84; type: functional, cell-based;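 further: growth inhibition of LAMA-84 cells, read out with a cell viability assay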
Description: SANGER: Inhibition of human LAMA-84 cell growth in a cell viability assay.

[35] = tested on: SW 954; type: functional, cell-based;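 further: growth inhibition of SW954 human cancer cells, read out as cell viability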
Description: SANGER: Inhibition of human SW954 cell growth in a cell viability assay.

[36] = tested on: KU812 cell line; type: functional, cell-based;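 further: growth inhibition of KU812 cells, read out with a cell viability assay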
Description: SANGER: Inhibition of human KU812 cell growth in a cell viability assay.

[37] = tested on: ES6; type: functional, cell-based;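 further: growth inhibition of human ES6 cells, read out with a cell viability assay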
Description: SANGER: Inhibition of human ES6 cell growth in a cell viability assay.

[38] = tested on: IST-MEL1; type: functional, cell-based;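 further: growth inhibition of the cell line, read out with a cell viability assay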
Description: SANGER: Inhibition of human IST-MEL1 cell growth in a cell viability assay.

[39] = tested on: COR-L88; type: functional, cell-based;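 further: growth inhibition of COR-L88 cells, read out with a cell viability assay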
Description: SANGER: Inhibition of human COR-L88 cell growth in a cell viability assay.

[40] = tested on: TE-12; type: functional, cell-based;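 further: growth inhibition of TE-12 cells, read out by a cell viability assay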
Description: SANGER: Inhibition of human TE-12 cell growth in a cell viability assay.

[41] = tested on: no-10; type: functional, cell-based;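 further: growth inhibition of no-10 cells, read out with a cell viability assay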
Description: SANGER: Inhibition of human no-10 cell growth in a cell viability assay.

[42] = tested on: HEL; type: functional, cell-based;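 further: growth inhibition of HEL cells, read out with a cell viability assay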
Description: SANGER: Inhibition of human HEL cell growth in a cell viability assay.

[43] = tested on: A704; type: functional, cell-based;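 further: growth inhibition of human A704 cells, read out with a cell viability assay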
Description: SANGER: Inhibition of human A704 cell growth in a cell viability assay.

[44] = tested on: SF-126; type: functional, cell-based;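 further: growth inhibition of human SF126 cells, read out with a cell viability assay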
Description: SANGER: Inhibition of human SF126 cell growth in a cell viability assay.

[45] = tested on: MPP-89; type: functional, cell-based;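 further: growth inhibition of human MPP-89 cells, read out with a cell viability assay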
Description: SANGER: Inhibition of human MPP-89 cell growth in a cell viability assay.

[46] = tested on: SNU1; type: functional, cell-based;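 further: growth inhibition of human NCI-SNU-1 cells, measured with a cell viability assay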
Description: SANGER: Inhibition of human NCI-SNU-1 cell growth in a cell viability assay.

[47] = tested on: GI-1; type: functional, cell-based;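 further: growth inhibition of human GI-1 cells, measured with a cell viability readout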
Description: SANGER: Inhibition of human GI-1 cell growth in a cell viability assay.

[48] = tested on: AM-38; type: functional, cell-based;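 further: growth inhibition of AM-38 cells of human origin, read out by a cell viability assay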
Description: SANGER: Inhibition of human AM-38 cell growth in a cell viability assay.

[49] = tested on: COLO-668; type: functional, cell-based
Description: SANGER: Inhibition of human COLO-668 cell growth in a cell viability assay.

[50] = tested on: QIMR-WIL; type: functional, cell-based;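 further: growth inhibition of QIMR-WIL cells, read out with a cell viability assay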
Description: SANGER: Inhibition of human QIMR-WIL cell growth in a cell viability assay.

[51] = tested on: LNCaP-Clone-FGC; type: functional, cell-based
Description: SANGER: Inhibition of human LNCaP-Clone-FGC cell growth in a cell viability assay.

[52] = tested on: IST-MES1; type: functional, cell-based;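 further: growth inhibition of IST-MES1 cells, measured with a cell viability assay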
Description: SANGER: Inhibition of human IST-MES1 cell growth in a cell viability assay.

[53] = tested on: RH-1; type: functional, cell-based;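 further: growth inhibition of human RH-1 cells, read out with a cell viability assay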
Description: SANGER: Inhibition of human RH-1 cell growth in a cell viability assay.

[54] = tested on: SCH; type: functional, cell-based
Description: SANGER: Inhibition of human SCH cell growth in a cell viability assay.

[55] = tested on: SBC-1; type: functional, cell-based
Description: SANGER: Inhibition of human SBC-1 cell growth in a cell viability assay.

[56] = tested on: D-263MG; type: functional, cell-based
Description: SANGER: Inhibition of human D-263MG cell growth in a cell viability assay.

[57] = tested on: TE-5; type: functional, cell-based
Description: SANGER: Inhibition of human TE-5 cell growth in a cell viability assay.

[58] = tested on: COLO-800; type: functional, cell-based
Description: SANGER: Inhibition of human COLO-800 cell growth in a cell viability assay.

[59] = tested on: EW-13; type: functional, cell-based
Description: SANGER: Inhibition of human EW-13 cell growth in a cell viability assay.

[60] = tested on: Lu-65; type: functional, cell-based
Description: SANGER: Inhibition of human LU-65 cell growth in a cell viability assay.

[61] = tested on: DOHH-2; type: functional, cell-based
Description: SANGER: Inhibition of human DOHH-2 cell growth in a cell viability assay.

[62] = tested on: SK-MEL-2; type: functional, cell-based
Description: SANGER: Inhibition of human SK-MEL-2 cell growth in a cell viability assay.

[63] = tested on: NCI-H23; type: functional, cell-based
Description: SANGER: Inhibition of human NCI-H23 cell growth in a cell viability assay.

[64] = tested on: U-87 MG; type: functional, cell-based, U-87MG ATCC
Description: SANGER: Inhibition of human U-87-MG cell growth in a cell viability assay.

[65] = tested on: ETK-1; type: functional, cell-based
Description: SANGER: Inhibition of human ETK-1 cell growth in a cell viability assay.

[66] = tested on: EKVX; type: functional, cell-based
Description: SANGER: Inhibition of human EKVX cell growth in a cell viability assay.

Measured: IC50

Cc1n[nH]c2ccc(-c3cncc(OC[C@@H](N)Cc4c[nH]c5ccccc45)c3)cc12 [A-443654]
261 nM: [43]
185 nM: [3] | [9]
400 nM: [46]
151 nM: [29]
428 nM: [31]
833 nM: [62]
266 nM: [2]
194 nM: [40]
96.5 nM: [36]
169 nM: [57]
101 nM: [65]
447 nM: [38]
79.5 nM: [14]
110 nM: [13]
129 nM: [41]
610 nM: [34]
120 nM: [27]
177 nM: [35]
216 nM: [5]
405 nM: [49]
318 nM: [32]
255 nM: [28]
160 nM: [55]
738 nM: [39]
240 nM: [61]
422 nM: [42]
91.5 nM: [37]
93.8 nM: [4]
256 nM: [50]
311 nM: [44]
130 nM: [15]
485 nM: [45]
111 nM: [12]
82.5 nM: [20]
187 nM: [47]
> 1020 nM: all other assays above

CC(O)(CS(=O)(=O)c1ccc(F)cc1)C(=O)Nc1ccc(C#N)c(C(F)(F)F)c1 (configuration not stated) [BICALUTAMIDE]
> 1020 nM: all assays above
